Assay results published in ChEMBL document CHEMBL5303573, “Mapping human microbiome drug metabolism by gut bacteria and their genes” (Nature, 2019).

Experiment: The drug is tested on Bacteroides dorei strain: DSM17855 for biotransformation. The drug concentrations were measured before and after a 12-h incubation by liquid-chromatography-coupled mass spectrometry (LC–MS)
Settings: phocaeicola dorei, 2 µM

SMILES	Bacterial Biotransformation
O=C(O)c1cc(/N=N/c2ccc(S(=O)(=O)Nc3ccccn3)cc2)ccc1O [SULFASALAZINE]	Compound metabolized
Cc1nc2n(c(=O)c1CCN1CCC(c3noc4cc(F)ccc34)CC1)CCCC2O (stereo not drawn) [PALIPERIDONE]	Compound metabolized
O=C(O)COCCN1CCN(C(c2ccccc2)c2ccc(Cl)cc2)CC1 (stereo not drawn) [CETIRIZINE]	Compound metabolized

Experiment: The drug is tested on Bacteroides coprophilus strain: DSM18228 for biotransformation. The drug concentrations were measured before and after a 12-h incubation by liquid-chromatography-coupled mass spectrometry (LC–MS)
Settings: 2 µM

SMILES	Bacterial Biotransformation
O=C(O)c1cc(/N=N/c2ccc(S(=O)(=O)Nc3ccccn3)cc2)ccc1O [SULFASALAZINE]	Compound NOT metabolized
Cc1nc2n(c(=O)c1CCN1CCC(c3noc4cc(F)ccc34)CC1)CCCC2O (stereo not drawn) [PALIPERIDONE]	Compound NOT metabolized
O=C(O)COCCN1CCN(C(c2ccccc2)c2ccc(Cl)cc2)CC1 (stereo not drawn) [CETIRIZINE]	Compound metabolized

Experiment: The drug is tested on Anaerotruncus colihominis strain: DSM17241 for biotransformation. The drug concentrations were measured before and after a 12-h incubation by liquid-chromatography-coupled mass spectrometry (LC–MS)
Settings: 2 µM

SMILES	Bacterial Biotransformation
O=C(O)c1cc(/N=N/c2ccc(S(=O)(=O)Nc3ccccn3)cc2)ccc1O [SULFASALAZINE]	Compound metabolized
Cc1nc2n(c(=O)c1CCN1CCC(c3noc4cc(F)ccc34)CC1)CCCC2O (stereo not drawn) [PALIPERIDONE]	Compound metabolized
O=C(O)COCCN1CCN(C(c2ccccc2)c2ccc(Cl)cc2)CC1 (stereo not drawn) [CETIRIZINE]	Compound NOT metabolized

Experiment: The drug is tested on Bacteroides pectinophilus strain: ATCC43243 for biotransformation. The drug concentrations were measured before and after a 12-h incubation by liquid-chromatography-coupled mass spectrometry (LC–MS)
Settings: 2 µM

SMILES	Bacterial Biotransformation
O=C(O)c1cc(/N=N/c2ccc(S(=O)(=O)Nc3ccccn3)cc2)ccc1O [SULFASALAZINE]	Compound NOT metabolized
Cc1nc2n(c(=O)c1CCN1CCC(c3noc4cc(F)ccc34)CC1)CCCC2O (stereo not drawn) [PALIPERIDONE]	Compound NOT metabolized
O=C(O)COCCN1CCN(C(c2ccccc2)c2ccc(Cl)cc2)CC1 (stereo not drawn) [CETIRIZINE]	Compound metabolized

Experiment: The drug is tested on Eubacterium rectale strain: ATCC33656 for biotransformation. The drug concentrations were measured before and after a 12-h incubation by liquid-chromatography-coupled mass spectrometry (LC–MS)
Settings: agathobacter rectalis, 2 µM

SMILES	Bacterial Biotransformation
O=C(O)c1cc(/N=N/c2ccc(S(=O)(=O)Nc3ccccn3)cc2)ccc1O [SULFASALAZINE]	Compound metabolized
Cc1nc2n(c(=O)c1CCN1CCC(c3noc4cc(F)ccc34)CC1)CCCC2O (stereo not drawn) [PALIPERIDONE]	Compound metabolized
O=C(O)COCCN1CCN(C(c2ccccc2)c2ccc(Cl)cc2)CC1 (stereo not drawn) [CETIRIZINE]	Compound NOT metabolized

Settings: parabacteroides johnsonii, 12 h, 2 µM
Description: The drug is tested on Parabacteroides johnsonii strain: DSM18315 for biotransformation. The drug concentrations were measured before and after a 12-h incubation by liquid-chromatography-coupled mass spectrometry (LC–MS)

SMILES	Bacterial Biotransformation
O=C(O)c1cc(/N=N/c2ccc(S(=O)(=O)Nc3ccccn3)cc2)ccc1O [SULFASALAZINE]	Compound metabolized
Cc1nc2n(c(=O)c1CCN1CCC(c3noc4cc(F)ccc34)CC1)CCCC2O (stereo not drawn) [PALIPERIDONE]	Compound metabolized
O=C(O)COCCN1CCN(C(c2ccccc2)c2ccc(Cl)cc2)CC1 (stereo not drawn) [CETIRIZINE]	Compound NOT metabolized

Experiment: The drug is tested on Parabacteroides merdae strain: ATCC43184 for biotransformation. The drug concentrations were measured before and after a 12-h incubation by liquid-chromatography-coupled mass spectrometry (LC–MS)
Settings: 2 µM

SMILES	Bacterial Biotransformation
O=C(O)c1cc(/N=N/c2ccc(S(=O)(=O)Nc3ccccn3)cc2)ccc1O [SULFASALAZINE]	Compound metabolized
Cc1nc2n(c(=O)c1CCN1CCC(c3noc4cc(F)ccc34)CC1)CCCC2O (stereo not drawn) [PALIPERIDONE]	Compound metabolized
O=C(O)COCCN1CCN(C(c2ccccc2)c2ccc(Cl)cc2)CC1 (stereo not drawn) [CETIRIZINE]	Compound NOT metabolized

Experiment: The drug is tested on Ruminococcus gnavus strain: ATCC29149 for biotransformation. The drug concentrations were measured before and after a 12-h incubation by liquid-chromatography-coupled mass spectrometry (LC–MS)
Settings: mediterraneibacter gnavus, 2 µM

SMILES	Bacterial Biotransformation
O=C(O)c1cc(/N=N/c2ccc(S(=O)(=O)Nc3ccccn3)cc2)ccc1O [SULFASALAZINE]	Compound metabolized
Cc1nc2n(c(=O)c1CCN1CCC(c3noc4cc(F)ccc34)CC1)CCCC2O (stereo not drawn) [PALIPERIDONE]	Compound metabolized
O=C(O)COCCN1CCN(C(c2ccccc2)c2ccc(Cl)cc2)CC1 (stereo not drawn) [CETIRIZINE]	Compound NOT metabolized

Experiment: The drug is tested on Bacteroides ovatus strain: ATCC8483 for biotransformation. The drug concentrations were measured before and after a 12-h incubation by liquid-chromatography-coupled mass spectrometry (LC–MS)
Settings: 2 µM

SMILES	Bacterial Biotransformation
O=C(O)c1cc(/N=N/c2ccc(S(=O)(=O)Nc3ccccn3)cc2)ccc1O [SULFASALAZINE]	Compound metabolized
Cc1nc2n(c(=O)c1CCN1CCC(c3noc4cc(F)ccc34)CC1)CCCC2O (stereo not drawn) [PALIPERIDONE]	Compound metabolized

Settings: bifidobacterium adolescentis, 12 h, 2 µM
Description: The drug is tested on Bifidobacterium adolescentis strain: ATCC 15703 for biotransformation. The drug concentrations were measured before and after a 12-h incubation by liquid-chromatography-coupled mass spectrometry (LC–MS)

SMILES	Bacterial Biotransformation
O=C(O)c1cc(/N=N/c2ccc(S(=O)(=O)Nc3ccccn3)cc2)ccc1O [SULFASALAZINE]	Compound metabolized
Cc1nc2n(c(=O)c1CCN1CCC(c3noc4cc(F)ccc34)CC1)CCCC2O (stereo not drawn) [PALIPERIDONE]	Compound NOT metabolized

Experiment: The drug is tested on Bacteroides uniformis strain: ATCC8492 for biotransformation. The drug concentrations were measured before and after a 12-h incubation by liquid-chromatography-coupled mass spectrometry (LC–MS)
Settings: 2 µM

SMILES	Bacterial Biotransformation
O=C(O)c1cc(/N=N/c2ccc(S(=O)(=O)Nc3ccccn3)cc2)ccc1O [SULFASALAZINE]	Compound metabolized
Cc1nc2n(c(=O)c1CCN1CCC(c3noc4cc(F)ccc34)CC1)CCCC2O (stereo not drawn) [PALIPERIDONE]	Compound metabolized
O=C(O)COCCN1CCN(C(c2ccccc2)c2ccc(Cl)cc2)CC1 (stereo not drawn) [CETIRIZINE]	Compound metabolized

Experiment: The drug is tested on Anaerococcus hydrogenalis strain: DSM7454 for biotransformation. The drug concentrations were measured before and after a 12-h incubation by liquid-chromatography-coupled mass spectrometry (LC–MS)
Settings: 2 µM

SMILES	Bacterial Biotransformation
O=C(O)c1cc(/N=N/c2ccc(S(=O)(=O)Nc3ccccn3)cc2)ccc1O [SULFASALAZINE]	Compound metabolized
Cc1nc2n(c(=O)c1CCN1CCC(c3noc4cc(F)ccc34)CC1)CCCC2O (stereo not drawn) [PALIPERIDONE]	Compound metabolized
O=C(O)COCCN1CCN(C(c2ccccc2)c2ccc(Cl)cc2)CC1 (stereo not drawn) [CETIRIZINE]	Compound NOT metabolized

Settings: bacteroides fragilis, 12 h, 2 µM
Description: The drug is tested on Bacteroides fragilis strain: NCTC 9343 for biotransformation. The drug concentrations were measured before and after a 12-h incubation by liquid-chromatography-coupled mass spectrometry (LC–MS)

SMILES	Bacterial Biotransformation
O=C(O)c1cc(/N=N/c2ccc(S(=O)(=O)Nc3ccccn3)cc2)ccc1O [SULFASALAZINE]	Compound metabolized
Cc1nc2n(c(=O)c1CCN1CCC(c3noc4cc(F)ccc34)CC1)CCCC2O (stereo not drawn) [PALIPERIDONE]	Compound metabolized
O=C(O)COCCN1CCN(C(c2ccccc2)c2ccc(Cl)cc2)CC1 (stereo not drawn) [CETIRIZINE]	Compound metabolized

Experiment: The drug is tested on Alistipes indistinctus strain: DSM22520 for biotransformation. The drug concentrations were measured before and after a 12-h incubation by liquid-chromatography-coupled mass spectrometry (LC–MS)
Settings: 2 µM

SMILES	Bacterial Biotransformation
O=C(O)c1cc(/N=N/c2ccc(S(=O)(=O)Nc3ccccn3)cc2)ccc1O [SULFASALAZINE]	Compound metabolized
Cc1nc2n(c(=O)c1CCN1CCC(c3noc4cc(F)ccc34)CC1)CCCC2O (stereo not drawn) [PALIPERIDONE]	Compound metabolized
O=C(O)COCCN1CCN(C(c2ccccc2)c2ccc(Cl)cc2)CC1 (stereo not drawn) [CETIRIZINE]	Compound metabolized

Experiment: The drug is tested on Ruminococcus torques strain: ATCC27756 for biotransformation. The drug concentrations were measured before and after a 12-h incubation by liquid-chromatography-coupled mass spectrometry (LC–MS)
Assay type: ADME
Design: dose 2 uM, timepoint 0 vs 12 hours
Settings: 2 µM

SMILES	Bacterial Biotransformation
O=C(O)c1cc(/N=N/c2ccc(S(=O)(=O)Nc3ccccn3)cc2)ccc1O [SULFASALAZINE]	Compound metabolized
Cc1nc2n(c(=O)c1CCN1CCC(c3noc4cc(F)ccc34)CC1)CCCC2O (stereo not drawn) [PALIPERIDONE]	Compound metabolized
O=C(O)COCCN1CCN(C(c2ccccc2)c2ccc(Cl)cc2)CC1 (stereo not drawn) [CETIRIZINE]	Compound NOT metabolized

Experiment: The drug is tested on Edwardsiella tarda strain: ATCC23685 for biotransformation. The drug concentrations were measured before and after a 12-h incubation by liquid-chromatography-coupled mass spectrometry (LC–MS)
Settings: 2 µM

SMILES	Bacterial Biotransformation
Cc1nc2n(c(=O)c1CCN1CCC(c3noc4cc(F)ccc34)CC1)CCCC2O (stereo not drawn) [PALIPERIDONE]	Compound metabolized
O=C(O)COCCN1CCN(C(c2ccccc2)c2ccc(Cl)cc2)CC1 (stereo not drawn) [CETIRIZINE]	Compound NOT metabolized

Settings: limosilactobacillus reuteri cf48-3a, 12 h, 2 µM
Description: The drug is tested on Lactobacillus reuteri CF48-3A strain: BEI HM-102 for biotransformation. The drug concentrations were measured before and after a 12-h incubation by liquid-chromatography-coupled mass spectrometry (LC–MS)

SMILES	Bacterial Biotransformation
O=C(O)c1cc(/N=N/c2ccc(S(=O)(=O)Nc3ccccn3)cc2)ccc1O [SULFASALAZINE]	Compound metabolized
Cc1nc2n(c(=O)c1CCN1CCC(c3noc4cc(F)ccc34)CC1)CCCC2O (stereo not drawn) [PALIPERIDONE]	Compound NOT metabolized
O=C(O)COCCN1CCN(C(c2ccccc2)c2ccc(Cl)cc2)CC1 (stereo not drawn) [CETIRIZINE]	Compound NOT metabolized

Experiment: The drug is tested on Enterococcus faecalis strain: V583 for biotransformation. The drug concentrations were measured before and after a 12-h incubation by liquid-chromatography-coupled mass spectrometry (LC–MS)
Settings: 2 µM

SMILES	Bacterial Biotransformation
O=C(O)c1cc(/N=N/c2ccc(S(=O)(=O)Nc3ccccn3)cc2)ccc1O [SULFASALAZINE]	Compound metabolized
O=C(O)COCCN1CCN(C(c2ccccc2)c2ccc(Cl)cc2)CC1 (stereo not drawn) [CETIRIZINE]	Compound NOT metabolized

Experiment: The drug is tested on Clostridium ramosum strain: DSM1402 for biotransformation. The drug concentrations were measured before and after a 12-h incubation by liquid-chromatography-coupled mass spectrometry (LC–MS)
Settings: thomasclavelia ramosa, 2 µM

SMILES	Bacterial Biotransformation
O=C(O)c1cc(/N=N/c2ccc(S(=O)(=O)Nc3ccccn3)cc2)ccc1O [SULFASALAZINE]	Compound metabolized
Cc1nc2n(c(=O)c1CCN1CCC(c3noc4cc(F)ccc34)CC1)CCCC2O (stereo not drawn) [PALIPERIDONE]	Compound metabolized
O=C(O)COCCN1CCN(C(c2ccccc2)c2ccc(Cl)cc2)CC1 (stereo not drawn) [CETIRIZINE]	Compound NOT metabolized
